{"source": "paper PMC3625961", "about": "(Synapse (New York, N.Y.), 2011)", "key": {"CRF1 receptor [1]": {"molecular_target": "T1, CRF1 receptor (Macaca mulatta, UniProt Q76LL8)", "T1 sequence (Q76LL8 24-415)": "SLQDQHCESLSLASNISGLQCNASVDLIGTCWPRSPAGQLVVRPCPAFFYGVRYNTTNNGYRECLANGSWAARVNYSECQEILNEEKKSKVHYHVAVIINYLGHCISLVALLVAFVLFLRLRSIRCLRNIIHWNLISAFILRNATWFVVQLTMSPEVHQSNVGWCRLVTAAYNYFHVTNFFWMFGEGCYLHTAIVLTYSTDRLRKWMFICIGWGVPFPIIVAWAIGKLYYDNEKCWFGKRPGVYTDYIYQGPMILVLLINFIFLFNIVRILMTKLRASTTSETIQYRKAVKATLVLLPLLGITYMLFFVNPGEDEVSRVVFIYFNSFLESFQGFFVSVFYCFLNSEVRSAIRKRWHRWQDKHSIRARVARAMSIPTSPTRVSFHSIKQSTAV", "format": "binding, rhesus monkey"}, "CRF2 R": {"molecular_target": "CRF2 R (Rattus norvegicus, UniProt P47866)", "sequence (P47866 1-431 isoform P47866-2)": "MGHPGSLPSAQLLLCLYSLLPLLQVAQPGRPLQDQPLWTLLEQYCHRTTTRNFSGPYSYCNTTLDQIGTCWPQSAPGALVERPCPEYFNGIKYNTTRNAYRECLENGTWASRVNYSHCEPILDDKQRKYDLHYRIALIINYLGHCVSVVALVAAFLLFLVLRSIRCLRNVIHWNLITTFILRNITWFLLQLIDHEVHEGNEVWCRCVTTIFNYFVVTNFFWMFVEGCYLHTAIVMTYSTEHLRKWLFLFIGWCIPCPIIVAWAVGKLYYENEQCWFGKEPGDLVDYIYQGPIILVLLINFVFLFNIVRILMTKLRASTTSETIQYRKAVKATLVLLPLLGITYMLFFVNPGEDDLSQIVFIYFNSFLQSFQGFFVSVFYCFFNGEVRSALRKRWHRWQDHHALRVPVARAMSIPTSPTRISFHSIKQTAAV", "experiment": "In vitro autoradiography competition with [125I]Sauvagine, rat choroid plexus", "format": "binding", "settings": "read-out: Rat choroid plexus Ki; [125I] Sauvagine 0.1 nM; n=3"}, "CRF1 receptors": {"molecular_target": "T2, CRF1 receptors (Rattus norvegicus, UniProt P35353)", "T2 sequence (P35353 24-415)": "T1 sequence (Q76LL8 24-415) with H6R, S9N, A13T, I16V, M153V, G163A, I209V, Y229H, H356R", "experiment": "In vitro autoradiography competition with [125I]Sauvagine, rat frontal cortex", "format": "binding"}, "CRF1 receptor [2]": {"molecular_target": "T1, CRF1 receptor", "experiment": "In vitro autoradiography with radioligand", "format": "binding, rhesus monkey", "settings": "saturation, ROIs in monkey prefrontal/frontal cortex; n=3"}, "P-gp": {"system": "P-gp", "settings": "ref Kiesewetter et al., 2003; cited from earlier work"}, "[3]": {"settings": "monkey frontal cortex, [125I]o-CRH"}}, "note": "Changes are numbered by the printed parent chain."}
{"compound": "COCCN(CCOC)c1nc(C)nc2c(-c3c(OC)cc(Br)cc3OC)c(C)nn12", "note": "[4-Br-BMK-152, [8-(4-bromo-2,6-dimethoxyphenyl)-2,7-dimethylpyrazolo[1,5-α][1,3,5]triazin-4-yl]-N,N-bis-(2-methoxyethyl)amine]", "values": [{"measurement": "greater affinity compared to 3-Br-BMK", "setting": "CRF1 receptor [1]; [3]", "result": 70, "unit": "fold"}, {"measurement": "greater affinity compared to o-CRH", "setting": "CRF1 receptor [1]; [3]", "result": 4, "unit": "fold"}, {"measurement": "Ki", "setting": "CRF1 receptor [1]; read-out: Rhesus Frontal Cortex Ki, [125I]-oCRH 0.125 nM, mean ± SD, n=3", "result": "0.35 ± 0.05", "unit": "nM"}, {"measurement": "Ki", "setting": "CRF2 R", "result": "> 1000", "unit": "nM"}, {"measurement": "greater affinity compared to o-CRH", "setting": "CRF1 receptors; rat frontal cortex, [125I]Sauvagine", "result": 5, "unit": "fold"}, {"measurement": "Ki", "setting": "CRF1 receptors; read-out: Rat Frontal Cortex Ki, [125I] Sauvagine 0.1 nM, mean ± SD, n=3", "result": "0.15 ± 0.05", "unit": "nM"}]}
{"compound": "CC[C@H](C)[C@H](NC(=O)[C@H](CC(=O)O)NC(=O)[C@H](CC(C)C)NC(=O)[C@H](CC(C)C)NC(=O)[C@H](CCCCN)NC(=O)[C@H](CCCNC(=N)N)NC(=O)[C@H](CC(N)=O)NC(=O)[C@H](CO)NC(=O)[C@H](Cc1c[nH]cn1)NC(=O)[C@H](C)NC(=O)[C@H](CCC(N)=O)NC(=O)[C@H](CCC(N)=O)NC(=O)[C@H](C)NC(=O)[C@H](CC(C)C)NC(=O)[C@H](CCC(N)=O)NC(=O)[C@H](CC(=O)O)NC(=O)[C@H](C)NC(=O)[C@H](CCCCN)NC(=O)[C@@H](NC(=O)[C@H](CCSC)NC(=O)[C@H](CCC(=O)O)NC(=O)[C@H](CC(C)C)NC(=O)[C@@H](NC(=O)[C@H](CCC(=O)O)NC(=O)[C@H](CCCNC(=N)N)NC(=O)[C@H](CC(C)C)NC(=O)[C@H](CC(C)C)NC(=O)[C@H](Cc1c[nH]cn1)NC(=O)[C@H](Cc1ccccc1)NC(=O)[C@@H](NC(=O)[C@H](CC(C)C)NC(=O)[C@H](CC(=O)O)NC(=O)[C@H](CC(C)C)NC(=O)[C@H](CO)NC(=O)[C@@H](NC(=O)[C@@H]1CCCN1C(=O)[C@@H]1CCCN1C(=O)[C@H](CCC(=O)O)NC(=O)[C@H](CCC(N)=O)NC(=O)[C@H](CO)NC(=O)[C@@H](N)Cc1ccc(O)c(I)c1)[C@@H](C)CC)[C@@H](C)O)C(C)C)[C@@H](C)O)C(=O)N[C@@H](C)C(N)=O", "note": "[[^125I]o-CRH]", "values": [{"measurement": "Kd", "setting": "CRF1 receptor [2]", "result": "0.68 ± 0.22", "unit": "nM"}]}
{"compound": "CC(=O)O[C@H]1C(=O)[C@@]2(C)[C@H]([C@H](OC(=O)c3ccccc3)[C@]3(O)C[C@H](OC(=O)[C@H](O)[C@@H](NC(=O)c4ccccc4)c4ccccc4)C(C)=C1C3(C)C)[C@]1(OC(C)=O)CO[C@@H]1C[C@@H]2O", "note": "[paclitaxel]", "values": [{"measurement": "increase in P-gp KO mice compared to WT mice", "setting": "P-gp", "result": 640, "unit": "%"}]}
